The nature of data set [1]: DPPH free-radical scavenging assay. It counts as biochemical. As to conditions: result in words; figure values in mg AAE/100 g not given. As to the method:
(§1) The free-radical scavenging activity of 1 and 2 in relation to the 2,2-diphenyl-1-picrylhydrazyl (DPPH) radical was measured using the colorimetric method described by Brand-Williams (1995), and the results are expressed in mg of ascorbic acid equivalent per 100 g of material (AAE/100 g). To evaluate the capacity of hydrogen atom transfer (HAT) of the isolated compounds, male Wistar rat brain homogenate was used as substrate for the production of thiobarbituric acid reactive substances (TBARS) produced by Fe^2+-induced oxidation undertaken at 37 °C, following the experimental conditions described elsewhere. The inhibition of lipid peroxidation was expressed as % of inhibition. The animal protocol was approved by the Ethics Committee (UEPG, protocol 47/2017).
For orientation: DPPH is a stable violet radical that fades when it is reduced.

Data set [2] has as its system IMR90 (human lung fibroblast). As to the kind of experiment: MTT cytotoxicity assay, IMR90. It counts as cell-based. To be noted: Homo sapiens, IMR-90, IMR90, 48 h; for IC50: 10–500 μM, read-out: IC50 (cell viability); for GI50: read-out: GI50 (antiproliferative effect). The protocol:
(§2) The in vitro cytotoxic effect of 1 and 2 compounds were analyzed in relation to A549 (lung adenocarcinoma epithelial cells—BCRJ code: 0033), HepG2 (human hepatoma carcinoma cells—BCRJ code: 0291), and IMR90 (human lung fibroblast—BCRJ code: 0118) cell lines using MTT (3-(4,5-dimethylthiazol-2-yl)-2,5-diphenyl tetrazolium bromide) (Sigma-Aldrich, COD—M5655) assay. All cell lines were maintained in Dulbecco’s Modified Eagle’s Medium/Nutrient Mixture F-12 Ham (Sigma-Aldrich, COD—D8900), with added 10% fetal bovine serum (FBS, Gibco, COD—16000044) and 100 IU penicillin/100 µg streptomycin (Sigma-Aldrich, COD—P4333). The cell lines were grown in a humidified incubator at 37 °C containing 5% CO2. Briefly, the cells were seeded into 96-well plates at a density of 1 × 10^4 cells/well (HepG2 and A549), 5 × 10^3 cells/well (IMR90), 100 μL/well, and after 24 h, the cells were treated with 100 μL of serial concentrations (10–500 μM) of compounds 1 and 2 for 48 h. The stock solution of extracts contained 5% of dimethyl sulfoxide (DMSO) at a final concentration of 0.2% in cell medium for all in vitro assays. The IC50, GI50, and LC50 parameters were performed in accordance with the method described by do Carmo (2018), in which IC50 is the concentration of the agent that inhibits growth by 50%, calculated as (T/C) × 100 = 50, where T = number of cells at time t of treatment; C = control cells at time t of treatment; GI50 is the concentration of the agent that inhibits growth by 50% relative to untreated cells, calculated as ((T − T0)/(C − T0)) × 100 = 50, where T and C are the number of treated and control cells, respectively, at time t of treatment, and T > T0 where T0 is the number of cells at time zero; LC50 is the concentration of the agent that results in a net loss of 50% cells relative to the number at the start of treatment, calculated as ((T − T0)/T0) × 100 = −50, where T < T0. The experiments were conducted in quadruplicate on three different days to assure the reproducibility of the generated data.

The nature of data set [3]: MTT cytotoxicity assay, IMR90. To be noted: human, IMR90 lung fibroblasts, IMR90, 48 h, read-out: LC50 (cell death). It counts as cell-based, human. As to the method:
as §2
Background: Tetrazolium dyes change colour on reduction, which living cells bring about.

Data set [4] has as its system Wistar rat brain homogenate. The data set is described as follows: Inhibition of lipid peroxidation (TBARS, Fe2+-induced oxidation) in rat brain homogenate. Type of data set: biochemical. To be noted: at 40 mg/L. The protocol: as §1
The test system of data set [5] is HepG2 (human hepatoma carcinoma cells). The data set is described as follows: MTT cytotoxicity assay, HepG2. To be noted: Homo sapiens, HepG2, 48 h; for IC50: 10–500 μM, read-out: IC50 (cell viability); for GI50: read-out: GI50 (antiproliferative effect). It counts as cell-based. As to the method:
as §2

The nature of data set [6]: MTT cytotoxicity assay, HepG2. It counts as cell-based, human. To be noted: human, HepG2 hepatoma carcinoma cells, HepG2, 48 h. As to the method:
as §2

Data set [7] has as its system A549 cancer cells. The data set is described as follows: Intracellular ROS measurement (DCFH-DA fluorescence), A549. As to conditions: A549, 10, 50 and 100 μM (legend; method says μg/mL), 1 h. It counts as cell-based, human. The protocol:
(§3) In order to assess the in vitro antioxidant/oxidant potential of 1 and 2, intracellular ROS generation was measured using a fluorescence technique as described by Carmo (2019). Briefly, A549 cancer cells (6 × 10^4/well) and IMR90 normal cells (2 × 10^4/well) were exposed to concentrations of 10, 50, and 100 μg/mL of 1 and 2 compounds, culture medium (negative control), and 15 μmol/L H2O2 (positive control), for 1 h in DCFH-DA solution ([…]), at 37 °C and 5% CO2. Subsequently, cells were washed with PBS and a H2O2 solution (15 μmol/L) added for recording of fluorescence. Intracellular fluorescence intensity of cells was measured at an excitation wavelength of 485 nm and at an emission wavelength of 538 nm. The assays were performed in quadruplicate on three different days.

Data set [8] deals with A549 (lung adenocarcinoma epithelial cells). As to the kind of experiment: MTT cytotoxicity assay, A549. It counts as cell-based, human. As to conditions: Homo sapiens, A549, 48 h; for IC50: 10–500 μM, read-out: IC50 (cell viability); for GI50: read-out: GI50 (antiproliferative effect). As to the method:
as §2

Data set [9] is described as follows: MTT cytotoxicity assay, A549. It counts as cell-based, human. To be noted: human, A549 lung adenocarcinoma epithelial cells, A549, 48 h. The protocol:
as §2

In data set [10] the test system is IMR90 normal cells. As to the kind of experiment: Intracellular ROS measurement (DCFH-DA fluorescence), IMR90. It counts as cell-based, human. To be noted: IMR90, 10, 50 and 100 μM (legend; method says μg/mL), 1 h. As to the method:
as §3

Bounds are passed on as bounds.

What is called IC50 is the concentration that inhibits the measured activity by half. As usually defined, the GI50 is the concentration giving 50% growth inhibition.

`CC1=CC=C[C@]2(C)CC(=O)C(=C(C)C)C[C@H]12` (relative stereo) [Compound 1, selina-1,3,7(11)-trien-8-one]: in data set [1], the “free-radical scavenging activity (DPPH assay)” value is “insignificant free-radical scavenging activity”. The IC50 in [2], in data set [5] and in data set [8] was greater than 500 µM throughout. The GI50 in data set [2] worked out at 185 µM; in [5], 289 µM; in data set [8] it was 591 µM. Also, the CC50 at 48 h in data set [3] is greater than 500 µM. Besides, in data set [4], the “inhibition of lipoperoxidation in rat brain homogenate” value is “did not show inhibitory activity”. For the same compound, the LC50 (concentration causing 50% cell death) at 48 h in [6] and in data set [9] was greater than 500 µM in each case. Also, the “intracellular ROS generation” value in data set [7] and in [10] was “inducing reactive oxygen species (ROS) generation” each time.

`CC1=COC=C[C@]2(C)CC(=O)C(=C(C)C)C[C@H]12` (relative stereo) [Compound 2, oxidoselina-1,3,7(11)-trien-8-one]: the “free-radical scavenging activity (DPPH assay)” value in [1] was “insignificant free-radical scavenging activity”. In addition, the half-inhibitory concentration (IC50) in data set [2] was greater than 500 µM; in data set [5] it was 525 µM; in data set [8], greater than 500 µM. Also, the concentration for 50% growth inhibition (GI50) was determined as 14.9 µM in data set [2], 97.5 µM in data set [5] and 359 µM in data set [8]. Further, in data set [3], the CC50 at 48 h was greater than 500 µM. Also, the “inhibition of lipoperoxidation in rat brain homogenate” value in data set [4] was “did not show inhibitory activity”. The “intracellular ROS generation” value in data set [7] and in [10] was “inducing reactive oxygen species (ROS) generation” each time.

These data come from article PMC7867026, “Selina-1,3,7(11)-trien-8-one and Oxidoselina-1,3,7(11)-trien-8-one from Eugenia uniflora Leaf Essential Oil and Their Cytotoxic Effects on Human Cell Lines” (Molecules, 2021).
